# Molecular target: T1, human M4 muscarinic acetylcholine receptor (Homo sapiens, UniProt P08173)
# T1 construct: expressed in transfected cells; host or cells: CHO-K1
# T1 sequence (P08173 1-479): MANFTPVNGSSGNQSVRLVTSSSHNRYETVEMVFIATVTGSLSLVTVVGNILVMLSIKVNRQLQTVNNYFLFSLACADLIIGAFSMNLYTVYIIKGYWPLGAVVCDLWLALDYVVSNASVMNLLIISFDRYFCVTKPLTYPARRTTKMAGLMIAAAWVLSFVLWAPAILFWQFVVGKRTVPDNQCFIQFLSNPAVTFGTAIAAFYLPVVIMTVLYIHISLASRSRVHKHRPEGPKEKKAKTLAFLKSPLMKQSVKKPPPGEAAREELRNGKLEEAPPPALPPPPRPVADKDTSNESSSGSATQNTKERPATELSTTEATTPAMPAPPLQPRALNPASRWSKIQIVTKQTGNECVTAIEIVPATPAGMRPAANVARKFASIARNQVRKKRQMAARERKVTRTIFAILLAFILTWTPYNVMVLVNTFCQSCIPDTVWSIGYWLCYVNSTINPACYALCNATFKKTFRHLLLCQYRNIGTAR
# Assay: human FLIPR-based M4 PAM assay, CHO-K1 cells stably transfected with human M4 receptor and chimeric G-protein Gαqi5
# Assay type: cell-based
# Settings: inflection point (IP) of dose response curve; acetylcholine added at 20% of maximum response; CHO-K1 human M4/Gαqi5, FLIPR Tetra
# Method: In a typical experiment the M4 muscarinic acetylcholine receptor modulating activity of the compounds of the present invention was determined in accordance with the following experimental method. CHO-K1 cells stably transfected with human M4 receptor and chimeric G-protein Gαqi5 (Coward P, et al., Analytical Biochemistry, 270:242-248 (1999)) are thawed from liquid N2 storage, resuspended in growth medium, plated in black, clear bottom 384 well plates, and incubated 16-20 hours at 37° C., 5% CO2. On the day of assay, growth medium is removed, the cells are washed 2 times with wash buffer, and cells are incubated in dye loading buffer at 37° C., 5% CO2 for ˜1 hour. Following dye loading the cell plates are placed in a FLIPR Tetra instrument and while monitoring dye fluorescence (excitation […]), 10 uL of test substance at increasing concentrations is added, and fluorescence values are recorded for 4 min. Next, 10 uL of acetylcholine is added (final concentration calculated so as to achieve 20% of the maximum acetycholine response), and the fluorescence reading is continued for 3.5 min. In some cases, a third addition of acetylcholine (final concentration calculated to achieve 70% of the maximal acetylcholine response) is performed. The resulting dose response curves are fit to a 4 parameter logistic equation and the final result is determined as the inflection point (IP) of the curve
# CHO-K1 cells stably transfected with human M4 receptor and chimeric G-protein Gαqi5 are thawed from liquid N2 storage, resuspended in growth medium, plated in black, clear bottom 384 well plates, and incubated 16-20 hours at 37° C., 5% CO2.
# On the day of assay, growth medium is removed, the cells are washed 2 times with wash buffer, and cells are incubated in dye loading buffer at 37° C., 5% CO2 for ˜1 h. Following dye loading the cell plates are placed in a FLIPR Tetra instrument and while monitoring dye fluorescence ([…]), 10 uL of test substance at increasing concentrations is added, and fluorescence values are recorded for 4 min. Next, 10 uL of acetylcholine is added (final concentration calculated so as to achieve 20% of the maximum acetycholine response), and the fluorescence reading is continued for 3.5 min. In some cases, a third addition of acetylcholine (final concentration calculated to achieve 70% of the maximal acetylcholine response) is performed.
row,Compound,EC50 [nM]
1,"Cc1nc2ccc(OC3CCN(c4nnc(C(=O)NC5C6CC5C6)cc4C)CC3)cc2o1 (stereo not drawn) [Example 148, N-bicyclo[1.1.1]pent-2-yl-5-methyl-6-{4-[(2-methyl-1,3-benzoxazol-6-yl)oxy]piperidin-1-yl}pyridazine-3-carboxamide]",221
2,"Cc1nc(C)c(C)c(N2CCC(Oc3cccc(C#N)c3)CC2)n1 [Example 103, 3-((1-(2,5,6-Trimethylpyrimidin-4-yl)piperidin-4-yl)oxy)benzonitrile]",61
3,"Cc1nc(Cl)c(C)c(N2CCC(Oc3cccnc3)CC2)n1 [Example 12, 4-chloro-2,5-dimethyl-6-(4-(pyridin-3-yloxy)piperidin-1-yl)pyrimidine]",292
4,"Cc1c(Cl)nc(CO)nc1N1CCC(Oc2ccc3c(c2)C(=O)NC3)CC1 [Example 98, 6-((1-(6-chloro-2-(hydroxymethyl)-5-methylpyrimidin-4-yl)piperidin-4-yl)oxy)isoindolin-1-one]",184
5,"COc1ccc(OC2CCN(c3nc(C)ncc3C)CC2)cc1 [Example 69, 4-(4-(4-methoxyphenoxy)piperidin-1-yl)-2,5-dimethylpyrimidine]",126
6,"COc1ccc(OC2CCN(c3nnc(C(=O)NCCc4ccccc4)cc3C)CC2)cn1 [Example 196, 6-{4-[(6-methoxypyridin-3-yl)oxy]piperidin-1-yl}-5-methyl-N-(2-phenylethyl)pyridazine-3-carboxamide]",74
7,"Cc1cc(C#N)nnc1N1CCC(Oc2cccc(C#N)c2)CC1 [Example 259, 6-(4-(3-cyanophenoxy)piperidin-1-yl)-5-methylpyridazine-3-carbonitrile]",62
8,"Cc1c(-c2cccnc2)ncnc1N1CCC(Oc2cccc(C#N)c2)CC1 [Example 244, 3-((1-(5-methyl-6-(pyridin-3-yl)pyrimidin-4-yl)piperidin-4-yl)oxy)benzonitrile]",461
9,"COc1ccc(OC2CCN(c3nnc(C(=O)OCc4ccncc4)cc3C)CC2)cn1 [Example 106A, Pyridin-4-ylmethyl 6-(4-((6-methoxypyridin-3-yl)oxy)piperidin-1-yl)-5-methylpyridazine-3-carboxylate]",85
10,"COc1ccc(OC2CCN(c3nc(C(=O)NCc4ccncc4Cl)nc(Cl)c3C)CC2)cn1 [Example 211, 4-chloro-N-((3-chloropyridin-4-yl)methyl)-6-(4-((6-methoxypyridin-3-yl)oxy)piperidin-1-yl)-5-methylpyrimidine-2-carboxamide]",635
11,"COc1ccc(OC2CCN(c3nnc(C(=O)NCCc4cn[nH]c4)cc3C)CC2)cn1 [Example 123, 6-{4-[(6-methoxypyridin-3-yl)oxy]piperidin-1-yl}-5-methyl-N-[2-(1H-pyrazol-4-yl)ethyl]pyridazine-3-carboxamide]",101
12,"COC(=O)c1cc(C(=O)OC)c(N2CCC(Oc3ccc(OC)nc3)CC2)nc1C#N [Example 46, dimethyl 2-cyano-6-(4-((6-methoxypyridin-3-yl)oxy)piperidin-1-yl)pyridine-3,5-dicarboxylate]",939
13,"CNc1ncnc(N2CCC(Oc3ccc(OC)nc3)CC2)c1C [Example 234, 6-(4-((6-methoxypyridin-3-yl)oxy)piperidin-1-yl)-N,5-dimethylpyrimidin-4-amine]",134
14,"Cc1ccc(OC2CCN(c3nnc(C(=O)NCc4ccncc4)cc3C)CC2)cc1Cl [Example 156, 6-[4-(3-chloro-4-methylphenoxy)piperidin-1-yl]-5-methyl-N-(pyridin-4-ylmethyl)pyridazine-3-carboxamide]",272
15,"Cc1cc(C(=O)NC2C3CC2C3)nnc1N1CCC(Oc2ccc3[nH]ncc3c2)CC1 (stereo not drawn) [Example 124, N-bicyclo[1.1.1]pent-2-yl-6-[4-(1H-indazol-5-yloxy)piperidin-1-yl]-5-methylpyridazine-3-carboxamide]",101
16,"COc1ccc(OC2CCN(c3nc(Cl)nc(Cl)c3C)CC2)cc1 [Example 77, 2,4-dichloro-6-(4-(4-methoxyphenoxy)piperidin-1-yl)-5-methylpyrimidine]",177
17,"Cc1nc(Cl)c(C)c(N2CCC(Oc3ccc4nn(C)cc4c3)CC2)n1 [Example 67, 5-((1-(6-chloro-2,5-dimethypyrimidin-4-yl)piperidin-4-yl)oxy)-2-methyl-2H-indazole]",108
18,"COc1ccc(OC2CCN(c3nnc(C(=O)N[C@@H]4CCc5ccccc54)cc3C)CC2)cn1 [Example 179, N-[(1R)-2,3-dihydro-1H-inden-1-yl]-6-{4-[(6-methoxypyridin-3-yl)oxy]piperidin-1-yl}-5-methylpyridazine-3-carboxamide]",793
19,"Cc1c(Cl)nc(CO)nc1N1CCC(Oc2ccc3c(c2)NC(=O)CC3)CC1 [Example 30, 7-((1-(6-chloro-2-(hydroxymethyl)-5-methylpyrimidin-4-yl)piperidin-4-yl)oxy)-3,4-dihydroquinolin-2(1H)-one]",140
20,"CCc1cc(C(=O)NCc2ccncc2)nnc1N1CCC(Oc2ccc(OC)nc2)CC1 [Example 205, 5-Ethyl-6-(4-((6-methoxypyridin-3-yl)oxy)piperidin-1-yl)-N-(pyridin-4-ylmethyl)pyridazine-3-carboxamide]",97
21,"CSc1nc(Cl)c(C)c(N2CCC(Oc3cccnc3)CC2)n1 [Example 15, 4-chloro-5-methyl-2-(methylthio)-6-(4-(pyridin-3-yloxy)piperidin-1-yl)pyrimidine]",745
22,"COc1ccc(O[C@@H]2CCN(c3nc(C(N)=O)nc(Cl)c3C)C[C@@H]2F)cn1 [Example 222, 4-chloro-6-((3S,4R)-3-fluoro-4-((6-methoxypyridin-3-yl)oxy)piperidin-1-yl)-5-methylpyrimidine-2-carboxamide]",141
23,"COc1ccc(OC2CCN(c3nc(C(N)=O)nc(Cl)c3C)CC2)cn1 [Example 206, 4-chloro-6-(4-((6-methoxypyridin-3-yl)oxy)piperidin-1-yl)-5-methylpyrimidine-2-carboxamide]",168
24,"COc1ccc(OC2CCN(c3ncnc(Cl)c3C)CC2)cn1 [Example 49, 4-chloro-6-(4-((6-methoxypyridin-3-yl)oxy)piperidin-1-yl)-5-methylpyrimidine]",44
25,"COc1ccc(OC2CCN(c3ncnc(N4CCC(F)(F)C4)c3C)CC2)cn1 [Example 231, 4-(3,3-difluoropyrrolidin-1-yl)-6-(4-((6-methoxypyridin-3-yl)oxy)piperidin-1-yl)-5-methylpyrimidine]",1090
26,"Cc1cc(C(=O)NCc2ccncc2)nnc1N1CCC(Oc2ccc3[nH]ncc3c2)CC1 [Example 111, 6-[4-(1H-indazol-5-yloxy)piperidin-1-yl]-5-methyl-N-(pyridin-4-ylmethyl)pyridazine-3-carboxamide]",40
27,"Cc1cc(C(=O)NCc2ccncc2)nnc1N1CCC(Oc2ccc3[nH]ccc3c2)CC1 [Example 110, 6-[4-(1H-indol-5-yloxy)piperidin-1-yl]-5-methyl-N-(pyridin-4-ylmethyl)pyridazine-3-carboxamide]",35
28,"COc1ccc(OC2CCN(c3nnc(C(=O)NCc4ccc(S(C)(=O)=O)cc4)cc3C)CC2)cn1 [Example 174, 6-{4-[(6-methoxypyridin-3-yl)oxy]piperidin-1-yl}-5-methyl-N-[4-(methylsulfonyl)benzyl]pyridazine-3-carboxamide]",563
29,"COc1ccc(OC2CCN(c3nc(C(=O)NCCc4ccncc4)nc(Cl)c3C)CC2)cn1 [Example 208, 4-chloro-6-(4-((6-methoxypyridin-3-yl)oxy)piperidin-1-yl)-5-methyl-N-(2-(pyridin-4-yl)ethyl)pyrimidine-2-carboxamide]",491
30,"Cc1nnc(N2CCC(Oc3cccc(C#N)c3)CC2)c(C#N)c1C [Example 11, 3-(4-(3-cyanophenoxy)piperidin-1-yl)-5,6-dimethylpyridazine-4-carbonitrile]",1130

# Reference: patent US11319298B2 (Merck Sharp & Dohme Corp., priority 2016, dated 2022)
